Entries after “also recorded” stand apart in the source; their conditions may differ. Read-outs that look alike come from different tables or passages of the source.
What was measured:
Pepck = Pepck gene expression in mouse primary hepatocytes; assay type: cell-based
[1] = test system: mouse primary hepatocytes; experiment: Glucose production (glucose output) in mouse primary hepatocytes; assay type: cell-based
Protocol: T09 treatment was used as a positive control for LXR activity. (D) Glucose output over 24 hrs from LXRα−/− and LXRβ−/− mouse primary hepatocytes following Dex 100 nM±10 μM GSK2033 treatment. (E) Glucose output over 8 hrs from WT hepatocytes following Dex 500 nM±10 μM GSK2033 treatments. Data represent the Avg±SD, N=3. *P<0.05 by One way ANOVA, Student Newman Keuls. Legend: V=vehicle, G=GSK2033 (LXR antagonist); D=dexamethasone (GR agonist); and T09=T0901317 (LXR agonist).
While not wishing to be limited by theory, subsequent to conducting these initial studies it was realized that 24 hour incubation of hepatocytes in gluconeogenic media may be too long. In the literature, for this type of assay, primary heptocytes are usually incubated up to 12 hours. As such, for subsequent studies of the present application, WT cells were treated with 500 nM Dex for 8 hours to be able to measure detectable levels of glucose in the media.

LXRα−/− mice = experiment: In vivo pilot study: T09 with GSK2033, liver LXR target genes
Protocol: LXRα−/− mice were injected i.p. with T09 (5 mg/kg) followed by i.p. injection of 20 or 40 mg/kg GSK2033. Data represents (N=1) mouse per treatment. Data represent Avg±SD of triplicates from QPCR analysis.

LXRα = molecular target: T1, LXRα (Homo sapiens, UniProt Q13133); experiment: GAL4-LXRα / UAS-luc co-transfection reporter assay in HEK293 cells; assay type: cell-based; design: co-transfecting UAS-reporter and GAL4-LBD of the nuclear receptors LXRα, LXRβ and GR; GAL4 (fusion partner); expressed in transfected cells; host or cells: HEK293 cells; mouse primary hepatocytes
T1 sequence (Q13133 209-447 limits assumed): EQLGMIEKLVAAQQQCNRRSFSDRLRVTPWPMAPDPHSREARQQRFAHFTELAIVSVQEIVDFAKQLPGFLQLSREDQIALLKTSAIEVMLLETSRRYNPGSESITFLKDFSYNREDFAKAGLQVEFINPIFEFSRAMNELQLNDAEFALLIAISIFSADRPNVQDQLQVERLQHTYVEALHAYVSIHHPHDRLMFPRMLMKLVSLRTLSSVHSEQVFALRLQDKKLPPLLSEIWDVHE
Protocol: (§1) RLU=relative luciferase units.
as §1
(§2) Further experiments were then carried out to determine the inhibitory potencies for the individual LXR isoforms in HEK 293 cells by co-transfecting UAS-reporter and GAL4-LBD of the nuclear receptors LXRα, LXRβ and GR and then treating with 8 different concentrations of GSK2033. To assess suppression of ligand activated receptors, the transfected cells were co-treated with increasing doses of GSK2033, in addition to T09091317 or Dex (dexamethasone) (at EC80 of LXR isoforms and GR, respectively).
(§3) A number of experiments were carried out to determine the relative inhibitory potencies of GSK2033, Amgen 54 and DMHCl for the individual LXR isoforms in HEK 293 cells by co-transfecting UAS-reporter and GAL4-LBD of the nuclear receptors LXRα, LXRβ and GR and then treating with 6 different concentrations of GSK2033, Amgen 54 and DMHCl. To assess suppression of ligand activated receptors, the transfected cells were co-treated with increasing doses of GSK2033, Amgen 54 and DMHCl, in addition to T09091317 or Dex (at EC80 of LXR isoforms and GR, respectively).

LXRβ = molecular target: T2, LXRβ (Homo sapiens, UniProt P55055); experiment: GAL4-LXRβ / UAS-luc co-transfection reporter assay in HEK293 cells; assay type: cell-based; design: co-transfecting UAS-reporter and GAL4-LBD of the nuclear receptors LXRα, LXRβ and GR; GAL4 (fusion partner); expressed in transfected cells; host or cells: HEK293 cells; mouse primary hepatocytes
T2 sequence (P55055 222-460 limits assumed): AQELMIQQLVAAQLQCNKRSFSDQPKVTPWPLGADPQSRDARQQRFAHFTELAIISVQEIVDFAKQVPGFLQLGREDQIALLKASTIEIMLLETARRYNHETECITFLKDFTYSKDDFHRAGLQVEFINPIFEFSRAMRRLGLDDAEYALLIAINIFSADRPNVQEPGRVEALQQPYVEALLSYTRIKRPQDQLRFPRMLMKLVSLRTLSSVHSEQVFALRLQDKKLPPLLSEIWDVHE
Protocol: as §1, §1, §2
A number of experiments were carried out to determine the relative inhibitory potencies of GSK2033, Amgen 54 and DMHCl for the individual LXR isoforms in HEK 293 cells by co-transfecting UAS-reporter and GAL4-LBD of the nuclear receptors LXRα, LXRβ and GR and then treating with 6 different concentrations of GSK2033, Amgen 54 and DMHCl.

GR = molecular target: T3, GR (Homo sapiens, UniProt P04150); experiment: GAL4-GR / UAS-luc co-transfection reporter assay in HEK293 cells; assay type: cell-based; design: co-transfecting UAS-reporter and GAL4-LBD of the nuclear receptors LXRα, LXRβ and GR; GAL4 (fusion partner); expressed in transfected cells; host or cells: HEK293 cells; mouse primary hepatocytes
T3 sequence (P04150 524-758 limits assumed): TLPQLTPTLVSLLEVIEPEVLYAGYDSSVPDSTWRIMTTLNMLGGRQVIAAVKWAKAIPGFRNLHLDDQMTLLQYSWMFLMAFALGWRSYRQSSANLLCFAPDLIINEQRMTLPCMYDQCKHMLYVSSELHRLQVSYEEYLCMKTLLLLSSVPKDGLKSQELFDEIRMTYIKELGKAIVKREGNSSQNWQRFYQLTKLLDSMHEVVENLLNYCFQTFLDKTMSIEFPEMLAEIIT
Protocol: as §1, §1, §2, §3

[2] = T09 5 mg/kg i.p. + GSK2033 20 or 40 mg/kg i.p.
[3] = preliminary experiment, 3 doses

Cc1cc(C)c(S(=O)(=O)N(Cc2ccc(-c3cccc(S(C)(=O)=O)c3)cc2)Cc2ccc(C(F)(F)F)o2)c(C)c1 [GSK2033, 2,4,6-trimethyl-N-((3′-(methylsulfonyl)-[1,1′-biphenyl]-4-yl)methyl)-N-((5-(trifluoromethyl)furan-2-yl)methyl)benzenesulfonamide]
Pepck expression (Pepck; Example 3, LXRα−/− hepatocytes, 100 nM Dex + 10 μM GSK2033): 3.2 fold
Pepck expression (Pepck; Example 3, LXRβ−/− hepatocytes, 100 nM Dex + 10 μM GSK2033): remained unchanged
Pepck expression (Pepck; Example 3, WT hepatocytes, 100 nM Dex + 10 μM GSK2033): 1.9 fold
Pepck expression (Pepck; Example 6, LXRα−/− hepatocytes, 100 nM Dex + 10 μM GSK2033): 0.8 fold
Pepck expression (Pepck; Example 6, LXRα−/− hepatocytes, 10 μM Cortisol + 10 μM GSK2033): 1.7 fold
Pepck expression (Pepck; Example 6, LXRα−/− hepatocytes, 10 μM Prednisone + 10 μM GSK2033): 1.24 fold
Pepck expression (Pepck; Example 6, LXRα−/− hepatocytes, 10 μM Triamcinolone acetonide + 10 μM GSK2033): 0.6 fold
Pepck expression (Pepck; Example 8, LXRα−/− hepatocytes, 100 nM Dex + 10 μM LXR antagonist): 2.7 fold
glucose secretion (glucose output) ([1]; LXRα−/− hepatocytes, 100 nM Dex + 10 μM GSK2033, 24 hours): 1.2 fold
glucose secretion (glucose output) ([1]; WT hepatocytes, 500 nM Dex + 10 μM GSK2033, 8 hours): 1.25 fold
liver ABCG5 activation by T09 (LXRα−/− mice; [2]): dose dependent inhibition; also recorded: dose dependent repression
liver ABCG8 activation by T09 (LXRα−/− mice; [2]): dose dependent inhibition; also recorded: dose dependent repression
toxicity (LXRα−/− mice; higher dose of GSK2033 (40 mg/kg)): no toxicity
IC50 (LXRα; Example 1, T0901317 at EC80 (250 nM), 8 concentrations, read-out: IC50 against LXRα): 79 nM
IC50 (LXRα; Example 7, T0901317 250 nM, 6 concentrations, read-out: IC50 to inhibit LXRα): 22 nM
basal repression of LXRα (LXRα; [3]): basal repression
IC50 (LXRβ; IC50 against LXRβ, Example 1, T0901317 at EC80 (100 nM), 8 concentrations): 37 nM
IC50 (LXRβ; IC50 to inhibit LXRβ, Example 7, T0901317 100 nM, 6 concentrations): 6.44 nM
basal repression of LXRβ (LXRβ; [3]): basal repression
Dex induced GR activity (GR; Example 1, GAL4-GR activated with 100 nM Dex): unaffected; also recorded: did not antagonize
Dex induced GR activity (GR; Example 7, 100 nM Dex): unaffected; also recorded: did not antagonize
